Measurements from US20250333394A1, “Tiparp Inhibitor Compounds” (AbbVie Inc., priority 2024, published 2025).
Where two headings read alike, the source gives them in different places.

How the values were obtained:
TIPARP GST-(TEV) = TIPARP GST-(TEV) (Homo sapiens (Human), UniProt Q7Z3E1); assay: TR-FRET binding assay, TIPARP; details: for IC50: TR-FRET, Probe 1, 2 hours incubation; for PARP1/TIPARP IC50 Ratio: ratio of PARP1 GST IC50 to TIPARP GST-(TEV) IC50
Description: The full-length cDNA encoding the human TIPARP (NP_001171647.1, UniProtKB-Q7Z3E1) of 657 amino acids was the template to generate the expression construct. […] The TIPARP fusion protein includes GST, glutathione S-transferase, a 26 kDa protein whose DNA sequence is frequently integrated into expression vectors for production of recombinant proteins. A […], was cloned into vector pFastBacTM 1 (Thermo Fisher Scientific) with an N-terminal GST tag followed by a TEV protease site to produce the TIPARP fusion protein, TIPARP GST-(TEV). TR-FRET assays were used to measure the binding of compounds to TIPARP and PARP1, and to characterize biochemical selectivity. Compound stock solutions (10 mM) were serially diluted in 3-fold increments in dimethyl sulfoxide (DMSO). Diluted compounds were dispensed (30 nL) into white ProxiPlate-384-well plates (PerkinElmer, Waltham, MA, USA) using an ECHO® 550 acoustic Labcyte dispenser (Beckman-Coulter Life Sciences, Indianapolis, IN, USA) to achieve a final starting concentration of 30 μM to 0.5 nM in the assay. This was followed by addition of 5 μL of 2× protein/probe mix (Table 2) made in assay buffer (Tris-HCl 50 mM pH 8.0; 5 mM MgCl2; 5 μM ZnCl2; 1 mM DTT (dithiothreitol); 0.15% BSA (bovine serum albumin) (w/v); and 0.01% TritonX-100 (w/v)) at final concentrations listed in Table 2. Subsequently, 5 μL of 2× antibody (Tb-labeled anti-GST antibody, Thermo Fisher Scientific, Waltham, MA, USA) in HEPES buffered saline was added to each well at a final concentration of 1 nM. The samples were then incubated for 2 hours under ambient conditions. Fluorescence was measured and TR-FR ET ratios were determined on an EnVision multimode plate reader (PerkinElmer) using a 520 nanometer (nm) excitation wavelength and collecting fluorescence emission at 495 nm. […] [table]

PARP1 GST = PARP1 GST (Homo sapiens (Human), UniProt P09874); assay: TR-FRET binding assay, PARP1; details: Probe 2, 2 hours incubation
Description: TR-FRET assays were used to measure the binding of compounds to TIPARP and PARP1, and to characterize biochemical selectivity. Compound stock solutions (10 mM) were serially diluted in 3-fold increments in dimethyl sulfoxide (DMSO). Diluted compounds were dispensed (30 nL) into white ProxiPlate-384-well plates (PerkinElmer, Waltham, MA, USA) using an ECHO® 550 acoustic Labcyte dispenser (Beckman-Coulter Life Sciences, Indianapolis, IN, USA) to achieve a final starting concentration of 30 μM to 0.5 nM in the assay. This was followed by addition of 5 μL of 2× protein/probe mix (Table 2) made in assay buffer (Tris-HCl 50 mM pH 8.0; 5 mM MgCl2; 5 μM ZnCl2; 1 mM DTT (dithiothreitol); 0.15% BSA (bovine serum albumin) (w/v); and 0.01% TritonX-100 (w/v)) at final concentrations listed in Table 2. Subsequently, 5 μL of 2× antibody (Tb-labeled anti-GST antibody, Thermo Fisher Scientific, Waltham, MA, USA) in HEPES buffered saline was added to each well at a final concentration of 1 nM. The samples were then incubated for 2 hours under ambient conditions. Fluorescence was measured and TR-FR ET ratios were determined on an EnVision multimode plate reader (PerkinElmer) using a 520 nanometer (nm) excitation wavelength and collecting fluorescence emission at 495 nm.

NCI-H1373 cells = assay: NCI-H1373 CellTiter-Glo cell assay for TIPARP inhibition; assay type: cell-based, human; details: 6 days, 100 nM 10-Cl-BBQ in medium, read-out: NCI-H1373 CTG EC50
Description: The NCI-H1373 CellTiter-Glo® assay was used to determine cell numbers after TIPARP inhibition-induced cell cycle arrest, and enabled screening of compounds for cellular TIPARP inhibition potency.
Compound stock solutions (10 mM) were serially diluted in 3-fold increments in dimethyl sulfoxide. Sample aliquots (120 nL) were dispensed into Corning® 384-well Flat Clear Bottom White Polystyrene TC-treated Microplates (Corning Life Sciences, Corning, NY, USA) using an ECHO® 550 acoustic Labcyte dispenser (Beckman-Coulter Life Sciences, Indianapolis, IN, USA) to achieve final concentrations between 30 μM and 0.5 nM in the assay. This was followed by the addition of 40 μL of 1000 NCI-H1373 cells (ATCC®, Manassas, VA, USA) in complete growth medium RPMI 1640 growth medium (Thermo Fisher Scientific, Waltham, MA, USA) supplemented with 20 mg/L L-glutamate, 25 mM HEPES (4-(2-hydroxyethyl)-1-piperazineethanesulfonic acid), 10% (v/v) heat inactivated FBS (fetal bovine serum), 1% (w/v) penicillin-streptomycin, and 100 nM 10-Cl-BBQ (10-chloro-7H-benzimidazo[2,1-a]benz[de]isoquinolin-7-one, (Tocris, Minneapolis, MN, USA). Duplicate cell plates with 40 μL cells/well along with various concentrations of compounds were kept in Nunc™ Square BioAssay Dishes (Thermo Fisher Scientific) at 98% relative humidity in a 5% C02 incubator at 37° C. for 6 days. On day 7, plates were moved to ambient lab conditions for 10 minutes until the temperature equilibrated. Following equilibration, CellTiter-Glo® Luminescent Cell Viability Assay reagent (Promega™, Madison, WI, USA) was added (15 μL) to each well of the plates. After a 20 minutes incubation, luminescence was detected using a ViewLux™ microplate imager (PerkinElmer, Waltham, MA, USA). Data analysis was performed using GraphPad Prism (Dotmatics, Boston, MA, USA).

DLD-1 parent cells = assay: CellTiter-Glo DLD-1 parent cell assay; assay type: cell-based; details: 6 days, read-out: DLD-1 CTG EC50
Description: (§1) The DLD-1 BRCA2 (−/−) CellTiter-Glo® assay measured the synthetic lethality of PARP1/2 inhibitors and was used as a surrogate to allow measurement of activity of both PARP1 and PARP2 in cells. If PARP1 and PARP2 are inhibited and are trapped onto chromatin during DNA replication, there is replication fork stalling and accumulation of double strand breaks. In BR CA wild-type cells, the resulting double strand DNA breaks are repaired via homologous recombination. In cells with mutation of BRCA1 or BRCA2, homologous recombination repair of DNA double strand breaks is defective, and cell death occurs after PARP1/2 inhibitor treatment (Lord C J, Ashworth A. PARP inhibitors: synthetic lethality in the clinic. Science. 2017 Mar. 17; 355(6330):1152-1158). Testing compounds in viability assays with the DLD-1-BR CA 2 (−/−) and DLD-1 parent cell enabled assessment on PARP1/2-dependent (cytotoxicity in the BRCA2 (−/−) cells only) vs. non-selective cytotoxicity in both cell lines.
(§2) Compound stock solutions (10 mM) were serially diluted in 3-fold increments in dimethyl sulfoxide (DMSO). Sample aliquots (120 nL) were dispensed into Corning® 384-well Flat Clear Bottom White Polystyrene TC-treated Microplates (Corning Life Sciences, Corning, NY, USA) using an ECHO® 550 acoustic Labcyte dispenser (Beckman-Coulter Life Sciences, Indianapolis, IN, USA) to achieve concentrations between 30 μM and 0.5 nM in the assay. In the assay, 40 μL of 500 DLD-1 parent cells (HORIZON® Therapeutics, Deerfield, IL, USA) or 40 μL of 1200 DLD-1-BRCA2 (−/−) cells (HORIZON Therapeutics) in complete growth medium containing RPMI 1640 growth medium (ThermoFisher Scientific, Waltham, MA, USA) supplemented with 20 mg/L L-glutamate, 25 mM HEPES (4-(2-hydroxyethyl)-1-piperazineethanesulfonic acid), 10% (v/v) heat inactivated FBS (fetal bovine serum), and 1% (w/v) Penicillin-Streptomycin were added.
(§3) Duplicate cell plates with 40 μL cells/well along with various concentrations of compounds were kept in Nunc™ Square BioAssay Dishes (Thermo Fisher Scientific) at 98% relative humidity in a 5% CO2 incubator at 37° C. for 6 days. On day 7, plates were moved to ambient lab conditions for 10 minutes until the temperature equilibrated. Following equilibration, CellTiter-Glo® Luminescent Cell Viability Assay reagent (Promega™, Madison, WI, USA) was added (15 μL) to each well of the plates. After a 20 minutes incubation, luminescence was detected using a ViewLux™ microplate imager (PerkinElmer, Waltham, MA, USA). Data analysis was performed using GraphPad Prism (Dotmatics, Boston, MA, USA).

DLD-1 BRCA2 (−/−) cells = assay: CellTiter-Glo DLD-1 BRCA2 (−/−) cell assay for PARP1/2 inhibition; assay type: cell-based; details: 6 days, read-out: DLD-1 BRCA2 (−/−) CTG EC50
Description: as §1, §2, §3

Chain of TIPARP GST-(TEV) (Q7Z3E1 441-657): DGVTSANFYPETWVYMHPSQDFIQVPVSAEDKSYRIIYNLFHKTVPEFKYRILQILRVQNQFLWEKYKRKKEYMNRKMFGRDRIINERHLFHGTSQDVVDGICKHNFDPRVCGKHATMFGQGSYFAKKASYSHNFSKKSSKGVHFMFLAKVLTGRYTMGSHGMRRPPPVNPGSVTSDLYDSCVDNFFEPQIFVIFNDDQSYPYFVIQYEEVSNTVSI
Chain of PARP1 GST (P09874 whole entry): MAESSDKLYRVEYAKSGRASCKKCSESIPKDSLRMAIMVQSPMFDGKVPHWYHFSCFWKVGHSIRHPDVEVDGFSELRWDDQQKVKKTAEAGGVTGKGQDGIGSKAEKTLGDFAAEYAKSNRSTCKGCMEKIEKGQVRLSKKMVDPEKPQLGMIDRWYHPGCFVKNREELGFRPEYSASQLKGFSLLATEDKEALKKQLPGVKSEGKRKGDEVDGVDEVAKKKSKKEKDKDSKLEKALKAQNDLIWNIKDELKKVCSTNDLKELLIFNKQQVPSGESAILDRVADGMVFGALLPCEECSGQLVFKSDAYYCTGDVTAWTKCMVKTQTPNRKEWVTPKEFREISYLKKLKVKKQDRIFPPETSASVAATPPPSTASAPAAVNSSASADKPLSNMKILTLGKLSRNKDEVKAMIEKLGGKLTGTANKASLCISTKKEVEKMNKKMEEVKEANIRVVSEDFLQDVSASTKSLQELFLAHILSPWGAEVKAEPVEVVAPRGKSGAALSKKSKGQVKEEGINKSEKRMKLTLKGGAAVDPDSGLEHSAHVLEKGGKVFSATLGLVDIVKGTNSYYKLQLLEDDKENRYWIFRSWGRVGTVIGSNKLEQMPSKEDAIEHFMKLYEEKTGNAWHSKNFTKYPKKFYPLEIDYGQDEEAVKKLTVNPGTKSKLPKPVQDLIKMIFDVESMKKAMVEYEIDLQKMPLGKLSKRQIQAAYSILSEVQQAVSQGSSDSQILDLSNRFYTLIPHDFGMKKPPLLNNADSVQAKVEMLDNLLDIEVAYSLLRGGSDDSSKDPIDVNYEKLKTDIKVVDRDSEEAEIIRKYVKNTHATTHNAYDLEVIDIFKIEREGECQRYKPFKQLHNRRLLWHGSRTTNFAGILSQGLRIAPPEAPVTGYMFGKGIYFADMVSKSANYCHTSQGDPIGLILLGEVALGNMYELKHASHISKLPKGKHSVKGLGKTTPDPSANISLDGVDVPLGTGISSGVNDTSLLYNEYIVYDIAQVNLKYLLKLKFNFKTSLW

Row | Compound | IC50 (TIPARP GST-(TEV)) [nM] | PARP1/TIPARP IC50 Ratio (TIPARP GST-(TEV)) | IC50 (PARP1 GST) [nM] | EC50 (NCI-H1373 cells) [nM] | EC50 (DLD-1 parent cells) [nM] | EC50 (DLD-1 BRCA2 (−/−) cells) [nM] | EC50 (NCI-H1373 cells; Homo sapiens, NCI-H1373, 144 h) [nM] | EC50 (DLD-1 parent cells; Homo sapiens, 144 h) [nM] | EC50 (DLD-1 BRCA2 (−/−) cells; Homo sapiens, 144 h) [nM]
1 | O=c1[nH]cc([C@H]2C[C@@H](C(=O)N3CCN(c4ncc(C(F)(F)F)cn4)CC3)C2)cc1C(F)(F)F [Example 23, 3-(trifluoromethyl)-5-[(1s,3s)-3-{4-[5-(trifluoromethyl)pyrimidin-2-yl]piperazine-1-carbonyl}cyclobutyl]pyridin-2(1H)-one] | 2.74 | 49.6 | 136 | 44.2 | 13300 | 785 | – | – | –
2 | C[C@@H]1CN(C(=O)[C@H]2C[C@@H](c3c[nH]c(=O)c(C(F)(F)F)c3)C2)C[C@H](C)N1c1ncc(C(C)(C)O)cn1 [Example 5, 5-[(1s,3s)-3-{(3R,5S)-4-[5-(2-hydroxypropan-2-yl)pyrimidin-2-yl]-3,5-dimethylpiperazine-1-carbonyl}cyclobutyl]-3-(trifluoromethyl)pyridin-2(1H)-one] | 2.3 | 974 | 2240 | – | – | – | 34.4 | > 30000 | 20500
3 | CC(C)(O)c1cnc(N2CCN(C(=O)[C@H]3C[C@@H](c4c[nH]c(=O)c(C(F)(F)F)c4)C3)CC2)nc1 [Example 28, 5-[(1s,3s)-3-{4-[5-(2-hydroxypropan-2-yl)pyrimidin-2-yl]piperazine-1-carbonyl}cyclobutyl]-3-(trifluoromethyl)pyridin-2(1H)-one] | 5.69 | 89.1 | 507 | 174 | > 30000 | 5450 | – | – | –
4 | C[C@H]1CN(C(=O)[C@H]2C[C@@H](c3c[nH]c(=O)c(C(F)(F)F)c3)C2)CCN1c1ncc(C(C)(C)O)cn1 [Example 10, 5-[(1R,3s)-3-{(3S)-4-[5-(2-hydroxypropan-2-yl)pyrimidin-2-yl]-3-methylpiperazine-1-carbonyl}cyclobutyl]-3-(trifluoromethyl)pyridin-2(1H)-one] | 10.1 | 305 | 3080 | – | – | – | 284 | > 30000 | > 30000
5 | C[C@@H]1CN(C(=O)[C@H]2C[C@@H](c3c[nH]c(=O)c(C(F)(F)F)c3)C2)C[C@H](C)N1c1ncc(C(F)(F)F)cn1 [Example 4, 5-[(1s,3s)-3-{(3R,5S)-3,5-dimethyl-4-[5-(trifluoromethyl)pyrimidin-2-yl]piperazine-1-carbonyl}cyclobutyl]-3-(trifluoromethyl)pyridin-2(1H)-one] | 5.7 | 547 | 3120 | – | – | – | 11.1 | 23900 | 7170
6 | C[C@@H]1CN(c2ncc(C(F)(F)F)cn2)C[C@H](C)N1C(=O)[C@H]1C[C@@H](c2c[nH]c(=O)c(C(F)(F)F)c2)C1 [Example 2, 5-[(1s,3s)-3-{(2R,6S)-2,6-dimethyl-4-[5-(trifluoromethyl)pyrimidin-2-yl]piperazine-1-carbonyl}cyclobutyl]-3-(trifluoromethyl)pyridin-2(1H)-one] | 3.75 | 1340 | 5020 | – | – | – | 32.2 | 22100 | 16500
7 | CC(C)(O)c1cnc(N2CCN(C(=O)[C@H]3C[C@@H](Cc4c[nH]c(=O)c(C(F)(F)F)c4)C3)CC2)nc1 [Example 27, 5-{[(1s,3s)-3-{4-[5-(2-hydroxypropan-2-yl)pyrimidin-2-yl]piperazine-1-carbonyl}cyclobutyl]methyl}-3-(trifluoromethyl)pyridin-2(1H)-one] | 2.34 | 98.7 | 231 | 38.7 | > 30000 | 894 | – | – | –
8 | C[C@H]1CN(c2ncc(C(F)(F)F)cn2)CCN1C(=O)[C@H]1C[C@@H](Cc2c[nH]c(=O)c(C(F)(F)F)c2)C1 [Example 17, 5-{[(1R,3s)-3-{(2S)-2-methyl-4-[5-(trifluoromethyl)pyrimidin-2-yl]piperazine-1-carbonyl}cyclobutyl]methyl}-3-(trifluoromethyl)pyridin-2(1H)-one] | 5 | 41.2 | 206 | – | – | – | 34.1 | 9750 | 217
